From PMC5970065 (Biochimica et biophysica acta, 2018)

Target: myeloperoxidase (MPO) (Homo sapiens, UniProt P05164)
Assay type: biochemical

Sequence of myeloperoxidase (MPO) (P05164 165-273): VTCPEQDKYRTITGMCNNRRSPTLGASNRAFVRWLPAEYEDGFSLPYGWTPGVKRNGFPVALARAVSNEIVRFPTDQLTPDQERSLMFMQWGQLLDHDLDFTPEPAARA
Sequence of myeloperoxidase (MPO) (P05164 279-745): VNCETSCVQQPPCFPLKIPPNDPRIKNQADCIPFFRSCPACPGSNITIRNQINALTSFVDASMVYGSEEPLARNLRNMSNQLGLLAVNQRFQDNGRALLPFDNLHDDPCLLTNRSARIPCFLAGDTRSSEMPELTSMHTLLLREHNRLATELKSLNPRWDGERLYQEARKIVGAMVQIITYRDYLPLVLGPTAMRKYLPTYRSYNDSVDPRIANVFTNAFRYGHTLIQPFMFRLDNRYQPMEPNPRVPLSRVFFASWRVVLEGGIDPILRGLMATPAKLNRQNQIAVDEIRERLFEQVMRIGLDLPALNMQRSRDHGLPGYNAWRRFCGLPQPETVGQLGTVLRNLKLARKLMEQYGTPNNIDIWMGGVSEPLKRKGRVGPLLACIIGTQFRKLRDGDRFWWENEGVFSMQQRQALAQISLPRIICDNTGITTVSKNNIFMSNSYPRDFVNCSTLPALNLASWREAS

SMILES: COc1cc(CC(CO[C@@H]2O[C@H](CO)[C@@H](O)[C@H](O)[C@H]2O)C(CO[C@@H]2O[C@H](CO)[C@@H](O)[C@H](O)[C@H]2O)Cc2ccc(O)c(OC)c2)ccc1O (stereo partly shown) [LGM2605]
- IC50: 63.5 µM
